Data published in US9657014B2, “Substituted 1,6-naphthyridines” (Hoffmann-La Roche Inc., priority 2012, dated 2017).

Tested on: human embryonic stem cell derived neural stem cells (NSCs)
Experiment: Neural stem cell proliferation assay (neurogenesis assay)
Type: cell-based
Conditions: Homo sapiens, Neural stem cell, 96 h; Table 1, novel compounds; concentration at which 150% activity of control (100%) is reached; ATP levels (CellTiterGlo) after 4 days incubation
Procedure: Neural Stem Cell Proliferation Assay
Neurogenic properties of small molecules are determined based on the proliferation of human embryonic stem cell derived neural stem cells (NSCs) which were derived via a dual smad inhibition as previously described (Chambers, S. M., et al., Highly efficient neural conversion of human ES and iPS cells by dual inhibition of SMAD signaling, Nature biotechnology, 2009. 27 (3): p. 275-80.)
Compounds respond is measured by the increase in cells based on ATP levels (Promega:CellTiterGlo®) after an incubation period of 4 days.
NSCs are thawed and expanded over 3 passages. On the 14th day, NSCs are seeded in Polyornithin/Laminin coated 384 well plates at a cell density of 21,000 cells/cm^2 in a media volume of 38 μl.
4 hours after cell seeding, compound solutions are added at a volume of 2 μl. Stock solutions of the compounds (water, 5% DMSO) are diluted to obtain a dose response (11 points, dilution factor is 2), ranging from 8 μM to 8 nM. Controls are run to consistently determine the neurogenic properties of the cells:
Negative (neutral) control is cell culture Media (final DMSO concentration: 0.25%).
Positive controls are: • 1. cell culture Media+100 ng/ml FGF2 (final DMSO concentration: 0.1%) • 2. cell culture Media+20 ng/ml EGF (final DMSO concentration: 0.1%) • 3. cell culture Media+100 ng/ml Wnt3a (final DMSO concentration: 0.1%)
After 4 days incubation at 37° C., 5% CO2, the amount of ATP per well is quantified. The ATP concentration is proportional to the cell number. ATP is quantified by using the Promega CellTiterGlo® kit. The CellTiterGlo® reagents contain a cell lysis buffer, a thermo stable luciferase (UltraGlo™ recombinant luciferase), magnesium and luciferin. Luciferin reacts with ATP producing oxyluciferin, AMP and light. The luminescence signal is proportional to the ATP content.
The value of negative (neutral) control is determined for each assay plate by taking the average of 16 negative control wells. The neurogenic compound response is calculated for each compound as (compound/Negative Control)*100.
The values of EC150 from the dose response curve are determined for each test compound. The EC150 is the compound concentration at which 150% activity of control (100%) is reached.

| Structure (SMILES) | EC (150% of control) [µM] |
| --- | --- |
| CC(NC(=O)c1ccc2cncc(-c3ccc(Cl)cc3)c2n1)c1cccc(S(C)(=O)=O)c1 (single isomer, unassigned; (-)) [Example 52, (−)-8-(4-Chloro-phenyl)-[1,6]naphthyridine-2-carboxylic acid [(S or R)-1-(3-methanesulfonyl-phenyl)-ethyl]-amide] | 0.8 |
| COCCNC(=O)c1ccc2cncc(Br)c2n1 [Example 1, 8-Bromo-N-(2-methoxyethyl)-1,6-naphthyridine-2-carboxamide] | 1.2 |
| COCCNC(=O)c1ccc2cncc(-c3ccc(OC)cc3)c2n1 [Example 2, N-(2-Methoxyethyl)-8-(4-methoxyphenyl)-1,6-naphthyridine-2-carboxamide] | 0.03 |
| COCCNC(=O)c1ccc2cncc(-c3cccc(OC)c3)c2n1 [Example 3, N-(2-Methoxyethyl)-8-(3-methoxyphenyl)-1,6-naphthyridine-2-carboxamide] | 0.26 |
| COCCNC(=O)c1ccc2cnccc2n1 [Example 4, N-(2-Methoxyethyl)-1,6-naphthyridine-2-carboxamide] | 0.5 |
| COCCNC(=O)c1ccc2cncc(-c3ccccc3OC)c2n1 [Example 5, N-(2-Methoxyethyl)-8-(2-methoxyphenyl)-1,6-naphthyridine-2-carboxamide] | 0.26 |
| COCCNC(=O)c1ccc2cncc(-c3ccc(Cl)cc3)c2n1 [Example 6, 8-(4-Chlorophenyl)-N-(2-methoxyethyl)-1,6-naphthyridine-2-carboxamide] | 0.02 |
| COCCNC(=O)c1ccc2cncc(-c3cccc(Cl)c3)c2n1 [Example 7, 8-(3-Chlorophenyl)-N-(2-methoxyethyl)-1,6-naphthyridine-2-carboxamide] | 0.32 |
| COCCNC(=O)c1ccc2cncc(-c3ccccc3Cl)c2n1 [Example 8, 8-(2-Chlorophenyl)-N-(2-methoxyethyl)-1,6-naphthyridine-2-carboxamide] | 0.33 |
| O=C(NCc1ccncc1)c1ccc2cncc(Br)c2n1 [Example 9, 8-Bromo-[1,6]naphthyridine-2-carboxylic acid (pyridin-4-ylmethyl)-amide] | 1.27 |
| O=C(NCc1ccccc1)c1ccc2cncc(Br)c2n1 [Example 10, N-Benzyl-8-bromo-1,6-naphthyridine-2-carboxamide] | 0.76 |
| COc1cccc(-c2cncc3ccc(C(=O)NCc4ccccc4)nc23)c1 [Example 11, N-Benzyl-8-(3-methoxyphenyl)-1,6-naphthyridine-2-carboxamide] | 0.03 |
| COc1ccccc1-c1cncc2ccc(C(=O)NCc3ccccc3)nc12 [Example 12, N-Benzyl-8-(2-methoxyphenyl)-1,6-naphthyridine-2-carboxamide] | 0.17 |
| O=C(NCc1ccccc1)c1ccc2cncc(-c3ccc(Cl)cc3)c2n1 [Example 13, N-Benzyl-8-(4-chlorophenyl)-1,6-naphthyridine-2-carboxamide] | 0.05 |
| O=C(NCc1ccccc1)c1ccc2cncc(-c3cccc(Cl)c3)c2n1 [Example 14, N-Benzyl-8-(3-chlorophenyl)-1,6-naphthyridine-2-carboxamide] | 0.54 |
| O=C(NCc1ccccc1)c1ccc2cncc(-c3ccccc3Cl)c2n1 [Example 15, N-Benzyl-8-(2-chlorophenyl)-1,6-naphthyridine-2-carboxamide] | 0.58 |
| O=C(NCc1ccccc1)c1ccc2cncc(-c3ccncc3)c2n1 [Example 16, N-Benzyl-8-(pyridin-4-yl)-1,6-naphthyridine-2-carboxamide] | 0.04 |
| O=C(NCc1ccccc1)c1ccc2cncc(-c3cccnc3)c2n1 [Example 17, N-Benzyl-8-(pyridin-3-yl)-1,6-naphthyridine-2-carboxamide] | 0.11 |
| COCCNC(=O)c1ccc2cncc(-c3ccncc3)c2n1 [Example 18, N-(2-Methoxyethyl)-8-(pyridin-4-yl)-1,6-naphthyridine-2-carboxamide] | 0.31 |
| COCCNC(=O)c1ccc2cncc(-c3cccnc3)c2n1 [Example 19, N-(2-methoxyethyl)-8-(pyridin-3-yl)-1,6-naphthyridine-2-carboxamide] | 0.49 |

| Structure (SMILES) | EC (150% of control) [µM] |
| --- | --- |
| COc1ccc(-c2cncc3ccc(C(=O)NCCc4ccccc4)nc23)cc1 [Example 20, 8-(4-Methoxyphenyl)-N-phenethyl-1,6-naphthyridine-2-carboxamide] | 0.8 |
| COc1ccc(-c2cncc3ccc(C(N)=O)nc23)cc1 [Example 21, 8-(4-Methoxyphenyl)-1,6-naphthyridine-2-carboxamide] | 0.01 |
| COc1ccc(-c2cncc3ccc(C(=O)NCc4cccnc4)nc23)cc1 [Example 22, 8-(4-Methoxyphenyl)-N-(pyridin-3-ylmethyl)-1,6-naphthyridine-2-carboxamide] | 0.03 |
| COc1ccc(-c2cncc3ccc(C(=O)NCc4ccccn4)nc23)cc1 [Example 23, 8-(4-Methoxyphenyl)-N-(pyridin-2-ylmethyl)-1,6-naphthyridine-2-carboxamide] | 0.03 |
| Cc1ccnc(-c2cncc3ccc(C(=O)NCc4ccccc4)nc23)c1 [Example 24, N-Benzyl-8-(4-methylpyridin-2-yl)-1,6-naphthyridine-2-carboxamide] | 0.94 |
| COc1ccc(-c2cncc3ccc(C(=O)NCCCc4ccccc4)nc23)cc1 [Example 25, 8-(4-Methoxyphenyl)-N-(3-phenylpropyl)-1,6-naphthyridine-2-carboxamide] | 0.67 |
| COc1cccc(-c2cncc3ccc(C(=O)NCc4ccncc4)nc23)c1 [Example 26, 8-(3-Methoxyphenyl)-N-(pyridin-4-ylmethyl)-1,6-naphthyridine-2-carboxamide] | 0.28 |
| COc1ccccc1-c1cncc2ccc(C(=O)NCc3ccncc3)nc12 [Example 27, 8-(2-Methoxyphenyl)-N-(pyridin-4-ylmethyl)-1,6-naphthyridine-2-carboxamide] | 0.56 |
| O=C(NCc1ccncc1)c1ccc2cncc(-c3ccc(Cl)cc3)c2n1 [Example 28, 8-(4-Chlorophenyl)-N-(pyridin-4-ylmethyl)-1,6-naphthyridine-2-carboxamide] | 0.1 |
| O=C(NCc1ccncc1)c1ccc2cncc(-c3cccc(Cl)c3)c2n1 [Example 29, 8-(3-Chlorophenyl)-N-(pyridin-4-ylmethyl)-1,6-naphthyridine-2-carboxamide] | 0.51 |
| O=C(NCc1ccncc1)c1ccc2cncc(-c3ccccc3Cl)c2n1 [Example 30, 8-(2-Chlorophenyl)-N-(pyridin-4-ylmethyl)-1,6-naphthyridine-2-carboxamide] | 0.49 |
| O=C(NCc1ccncc1)c1ccc2cncc(-c3cccnc3)c2n1 [Example 31, 8-(Pyridin-3-yl)-N-(pyridin-4-ylmethyl)-1,6-naphthyridine-2-carboxamide] | 0.54 |
| O=C(NCc1ccncc1)c1ccc2cncc(-c3ccncc3)c2n1 [Example 32, 8-(Pyridin-4-yl)-N-(pyridin-4-ylmethyl)-1,6-naphthyridine-2-carboxamide] | 0.29 |
| COc1ccc(-c2cncc3ccc(C(=O)N(C)Cc4ccccc4)nc23)cc1 [Example 33, N-Benzyl-8-(4-methoxyphenyl)-N-methyl-1,6-naphthyridine-2-carboxamide] | 0.22 |
| COCCN(Cc1ccccc1)C(=O)c1ccc2cncc(-c3ccc(OC)cc3)c2n1 [Example 34, N-Benzyl-N-(2-methoxyethyl)-8-(4-methoxyphenyl)-1,6-naphthyridine-2-carboxamide] | 0.21 |
| COc1ccc(-c2cncc3ccc(C(=O)NCCC(F)(F)F)nc23)cc1 [Example 35, 8-(4-Methoxyphenyl)-N-(3,3,3-trifluoropropyl)-1,6-naphthyridine-2-carboxamide] | 1.74 |
| O=C(NCCCn1ccnc1)c1ccc2cncc(-c3cccc(Cl)c3)c2n1 [Example 36, N-(3-(1H-Imidazol-1-yl)propyl)-8-(3-chlorophenyl)-1,6-naphthyridine-2-carboxamide] | 1.04 |
| O=C(NCCCn1ccnc1)c1ccc2cncc(-c3ccc(Cl)cc3)c2n1 [Example 37, N-(3-(1H-Imidazol-1-yl)propyl)-8-(4-chlorophenyl)-1,6-naphthyridine-2-carboxamide] | 0.12 |
| COc1cccc(-c2cncc3ccc(C(=O)NCCCn4ccnc4)nc23)c1 [Example 38, N-(3-(1H-Imidazol-1-yl)propyl)-8-(3-methoxyphenyl)-1,6-naphthyridine-2-carboxamide] | 1.95 |
